For this assay, the system named is recombinant NL4-3 virus (Renilla luciferase in nef, Gag P373S; NLRluc) in MT-2 cells. As to the kind of experiment: HIV Cell Culture Assay (luciferase reporter, antiviral activity). The format is cell-based. The settings on record: Renilla, NL43, MT-2 cells infected for 4-5 days with NLRluc recombinants, serial dilutions of the inhibitor. Here is the method: HIV Cell Culture Assay—MT-2 cells and 293T cells were obtained from the NIH AIDS Research and Reference Reagent Program. MT-2 cells were propagated in RPMI 1640 media supplemented with 10% heat inactivated fetal bovine serum, […]. The 293T cells were propagated in DMEM media supplemented with 10% heat inactivated fetal bovine serum (FBS), 100 units/ml penicillin G and 100 μg/ml streptomycin. The proviral DNA clone of NL4-3 was obtained from the NIH AIDS Research and Reference Reagent Program. A recombinant NL4-3 virus, in which a section of the nef gene from NL4-3 was replaced with the Renilla luciferase gene, was used as a reference virus. In addition, residue Gag P373 was converted to P373S. Briefly, the recombinant virus was prepared by transfection of the altered proviral clone of NL4-3. Transfections were performed in 293T cells using LipofectAMINE PLUS from Invitrogen (Carlsbad, Calif.), according to manufacturer's instruction. The virus was titered in MT-2 cells using luciferase enzyme activity as a marker. Luciferase was quantitated using the Dual Luciferase kit from Promega (Madison, Wis.), with modifications to the manufacturer's protocol. The diluted Passive Lysis solution was pre-mixed with the re-suspended Luciferase Assay Reagent and the re-suspended Stop & Glo Substrate (2:1:1 ratio). Fifty (50) μL of the mixture was added to each aspirated well on assay plates and luciferase activity was measured immediately on a Wallac TriLux (Perkin-Elmer). Antiviral activities of inhibitors toward the recombinant virus were quantified by measuring luciferase activity in cells infected for 4-5 days with NLRluc recombinants in the presence serial dilutions of the inhibitor.
For orientation: In a reporter assay the amount or activity of a reporter protein is the signal.

SMILES strings stand for the structures.

The EC50 is the midpoint of the concentration-response curve.

`C=C(C)[C@@H]1CC[C@]2(NCCN3CCS(=O)(=O)CC3)CC[C@]3(C)[C@H](CC[C@@H]4[C@@]5(C)CC=C(CC6CCC(OC)(C(=O)O)CC6)C(C)(C)[C@@H]5CC[C@]43C)[C@@H]12` (stereo partly drawn) [Example 9, 4-(((1R,3aS,5aR,5bR,7aR,11aS,11bR,13aR,13bR)-3a-((2-(1,1-dioxidothiomorpholino)ethyl)amino)-5a,5b,8,8,11a-pentamethyl-1-(prop-1-en-2-yl)-2,3,3a,4,5,5a,5b,6,7,7a,8,11,11a,11b,12,13,13a,13b-octadecahydro-1H-cyclopenta[a]chrysen-9-yl)methyl)-1-methoxycyclohexanecarboxylic acid]: the EC50 came out at 3.7 nM.

For `C=C(C)[C@@H]1CC[C@]2(NCCN3CCS(=O)(=O)CC3)CC[C@]3(C)[C@H](CC[C@@H]4[C@@]5(C)CC=C(CCCCCC(=O)O)C(C)(C)[C@@H]5CC[C@]43C)[C@@H]12` [Example 10, 6-((1R,3aS,5aR,5bR,7aR,11aS,11bR,13aR,13bR)-3a-((2-(1,1-dioxidothiomorpholino)ethyl)amino)-5a,5b,8,8,11a-pentamethyl-1-(prop-1-en-2-yl)-2,3,3a,4,5,5a,5b,6,7,7a,8,11,11a,11b,12,13,13a,13b-octadecahydro-1H-cyclopenta[a]chrysen-9-yl)hexanoic acid], the EC50 is 3.1 nM. Next, `C=C(C)[C@@H]1CC[C@]2(NCCN3CCS(=O)(=O)CC3)CC[C@]3(C)[C@H](CC[C@@H]4[C@@]5(C)CC=C(CC6CCC(OCC)(C(=O)O)CC6)C(C)(C)[C@@H]5CC[C@]43C)[C@@H]12` (stereo partly drawn) [Example 8, 4-(((1R,3aS,5aR,5bR,7aR,11aS,11bR,13aR,13bR)-3a-((2-(1,1-dioxidothiomorpholino)ethyl)amino)-5a,5b,8,8,11a-pentamethyl-1-(prop-1-en-2-yl)-2,3,3a,4,5,5a,5b,6,7,7a,8,11,11a,11b,12,13,13a,13b-octadecahydro-1H-cyclopenta[a]chrysen-9-yl)methyl)-1-ethoxycyclohexanecarboxylic acid]: 4.2 nM; `C=C(C)[C@@H]1CC[C@]2(NCCN3CCS(=O)(=O)CC3)CC[C@]3(C)[C@H](CC[C@@H]4[C@@]5(C)CC=C(/C=C/C6CC6(NC(=O)OC(C)(C)C)C(=O)O)C(C)(C)[C@@H]5CC[C@]43C)[C@@H]12` (stereo partly drawn) [Example B2, 1-((tert-butoxycarbonyl)amino)-2-((E)-2-((1R,3aS,5aR,5bR,7aR,11aS,11bR,13aR,13bR)-3a-((2-(1,1-dioxidothiomorpholino)ethyl)amino)-5a,5b,8,8,11a-pentamethyl-1-(prop-1-en-2-yl)-2,3,3a,4,5,5a,5b,6,7,7a,8,11,11a,11b,12,13,13a,13b-octadecahydro-1H-cyclopenta[a]chrysen-9-yl)vinyl)cyclopropanecarboxylic acid]: 40 nM.
